# Assay results from BindingDB's records for doi:10.1021/ml400382p (Glaxosmithkline, 2013).
# pIC50: −log10 of the molar value.
# Assay: Inhibition of RIP1 in human U937 cells assessed as prevention of TNFalpha/zVAD.fmk-induced necrotic cell death preincubated for 30 to 60 mins followed by TNF-alpha induction measured after overnight incubation by Cell Titer-Glo luminescence assay
row,SMILES,pIC50
1,Nc1nccc2c(-c3ccc(NC(=O)Nc4cccc(C(F)(F)F)c4)cc3)cccc12,6.20
2,Nc1nccc2c(-c3ccc(NC(=O)Nc4ccc(F)c(C(F)(F)F)c4)cc3)cccc12,5.60
3,Nc1nccc2c(-c3ccc(NC(=O)Nc4cc(F)cc(C(F)(F)F)c4)cc3)cccc12,5.60
4,Nc1nccc2c(-c3ccc(NC(=O)Nc4cc(C(F)(F)F)ccc4F)cc3)cccc12,6.20
5,CC(C)(C)c1cc(NC(=O)Nc2ccc(-c3coc4ncnc(N)c34)cc2)no1,6.70
6,Nc1ncnc2occ(-c3ccc(NC(=O)Nc4cccc(Cl)c4)cc3)c12,5.10
7,CCc1cccc(NC(=O)Nc2ccc(-c3coc4ncnc(N)c34)cc2)c1,6.60
8,Nc1ncnc2occ(-c3ccc(NC(=O)Nc4ccc(Cl)c(C(F)(F)F)c4)cc3)c12,5.89
9,Nc1ncnc2occ(-c3ccc(NC(=O)Nc4cccc(C(F)(F)F)c4F)cc3)c12,5.00
10,Nc1ncnc2occ(-c3ccc(NC(=O)Nc4cc(F)cc(C(F)(F)F)c4)cc3)c12,5.30
11,Nc1ncnc2occ(-c3ccc(NC(=O)Nc4ccc(F)c(C(F)(F)F)c4)cc3)c12,5.89
12,O=C(Nc1cccc(-c2c[nH]c3ncc(-c4cn[nH]c4)cc23)c1)Nc1cc(C(F)(F)F)ccc1F,7.20
13,Nc1ccc(-c2cnc3[nH]cc(-c4cccc(NC(=O)Nc5cc(C(F)(F)F)ccc5F)c4)c3c2)cc1,7.80
14,CS(=O)(=O)c1cccc(-c2cnc3[nH]cc(-c4cccc(NC(=O)Nc5cc(C(F)(F)F)ccc5F)c4)c3c2)c1,7.30
15,NC(=O)c1cccc(-c2cnc3[nH]cc(-c4cccc(NC(=O)Nc5cc(C(F)(F)F)ccc5F)c4)c3c2)c1,7.20
16,O=C(Nc1cccc(-c2c[nH]c3ncc(-c4cccnc4)cc23)c1)Nc1cc(C(F)(F)F)ccc1F,8.20
17,CCS(=O)(=O)c1ccc(-c2cnc3[nH]cc(-c4cccc(NC(=O)Nc5cc(C(F)(F)F)ccc5F)c4)c3c2)cc1,7.60
18,O=C(Nc1cccc(-c2c[nH]c3ncc(-c4ccccc4)cc23)c1)NC1CCCC1,5.10
19,O=C(Nc1cccc(-c2c[nH]c3ncc(-c4ccccc4)cc23)c1)Nc1cc(C(F)(F)F)ccc1F,6.80
20,CC(=O)c1cccc(NC(=O)Nc2cccc(-c3c[nH]c4ncc(-c5ccccc5)cc34)c2)c1,6.49
21,COc1cccc(NC(=O)Nc2cccc(-c3c[nH]c4ncc(-c5ccccc5)cc34)c2)c1,6.40
22,O=C(Nc1cccc(-c2c[nH]c3ncc(-c4ccccc4)cc23)c1)Nc1cccc(C(F)(F)F)c1,7.10
23,O=C(Nc1cccc(-c2c[nH]c3ncc(-c4ccccc4)cc23)c1)Nc1cccc([N+](=O)[O-])c1,6.49
24,Nc1nccc2c(-c3ccc(NC(=O)Nc4cc(C(F)(F)F)ccc4Cl)cc3)cccc12,< 5.00
25,Nc1nccc2c(-c3ccc(NC(=O)Nc4ccc(Cl)c(C(F)(F)F)c4)cc3)cccc12,5.70
26,"O=C(Nc1ccccc1)Nc1cccc(-c2c[nH]c3ncc(-c4ccccc4)cc23)c1 [1-phenyl-3-(3-(5-phenyl-1H-pyrrolo[2,3-b]pyridin-3-yl)phenyl)urea]",6.22
27,"Nc1ncnc2occ(-c3ccc(NC(=O)Nc4cc(C(F)(F)F)cc(C(F)(F)F)c4)cc3)c12 [3-(4-{4-aminofuro[2,3-d]pyrimidin-5-yl}phenyl)-1-[3,5-bis(trifluoromethyl)phenyl]urea]",5.10
28,"Nc1ncnc2occ(-c3ccc(NC(=O)Nc4cccc(C(F)(F)F)c4)cc3)c12 [3-(4-{4-aminofuro[2,3-d]pyrimidin-5-yl}phenyl)-1-[3-(trifluoromethyl)phenyl]urea]",6.00
29,"Nc1ncnc2occ(-c3ccc(NC(=O)Nc4ccc5ccccc5c4)cc3)c12 [3-(4-{4-aminofuro[2,3-d]pyrimidin-5-yl}phenyl)-1-naphthalen-2-ylurea]",6.10
